The source of these data is patent publication US7351724B2, “Oxadiazole ketone inhibitors of fatty acid amide hydrolase” (The Scripps Research Institute, priority 2004, dated 2008).

The test system of test [1] is rats. As to conditions: cited from earlier work.
In test [2] the target is T1, FAAH (Homo sapiens, UniProt O00519).
T1 sequence (O00519 1-579): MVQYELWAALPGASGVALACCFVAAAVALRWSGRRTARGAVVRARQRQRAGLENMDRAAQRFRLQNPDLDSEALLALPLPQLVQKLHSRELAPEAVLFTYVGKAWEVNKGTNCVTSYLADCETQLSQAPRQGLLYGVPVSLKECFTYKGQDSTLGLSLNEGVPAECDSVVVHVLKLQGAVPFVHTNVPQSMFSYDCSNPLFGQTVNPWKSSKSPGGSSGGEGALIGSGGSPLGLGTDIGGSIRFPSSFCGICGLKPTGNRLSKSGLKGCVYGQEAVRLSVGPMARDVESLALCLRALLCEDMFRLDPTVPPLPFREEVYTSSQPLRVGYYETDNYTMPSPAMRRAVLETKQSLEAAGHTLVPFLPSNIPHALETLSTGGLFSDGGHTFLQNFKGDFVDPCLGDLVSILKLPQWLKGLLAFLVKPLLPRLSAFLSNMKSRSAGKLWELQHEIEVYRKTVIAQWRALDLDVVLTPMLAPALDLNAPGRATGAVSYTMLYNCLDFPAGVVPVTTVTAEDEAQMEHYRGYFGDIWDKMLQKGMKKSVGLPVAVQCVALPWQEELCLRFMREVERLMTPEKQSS
The conditions noted are these: cited from earlier work.

Test [3] deals with rats. As to conditions: WO 04/033652; cited from earlier work.
Test [4] has as its target T2, FAAH (Rattus norvegicus, UniProt P97612).
T2 construct: using a solubilized liver plasma membrane extract containing FMH; from tissue; host or cells: liver plasma membrane (solubilized extract)
T2 sequence (P97612 1-579): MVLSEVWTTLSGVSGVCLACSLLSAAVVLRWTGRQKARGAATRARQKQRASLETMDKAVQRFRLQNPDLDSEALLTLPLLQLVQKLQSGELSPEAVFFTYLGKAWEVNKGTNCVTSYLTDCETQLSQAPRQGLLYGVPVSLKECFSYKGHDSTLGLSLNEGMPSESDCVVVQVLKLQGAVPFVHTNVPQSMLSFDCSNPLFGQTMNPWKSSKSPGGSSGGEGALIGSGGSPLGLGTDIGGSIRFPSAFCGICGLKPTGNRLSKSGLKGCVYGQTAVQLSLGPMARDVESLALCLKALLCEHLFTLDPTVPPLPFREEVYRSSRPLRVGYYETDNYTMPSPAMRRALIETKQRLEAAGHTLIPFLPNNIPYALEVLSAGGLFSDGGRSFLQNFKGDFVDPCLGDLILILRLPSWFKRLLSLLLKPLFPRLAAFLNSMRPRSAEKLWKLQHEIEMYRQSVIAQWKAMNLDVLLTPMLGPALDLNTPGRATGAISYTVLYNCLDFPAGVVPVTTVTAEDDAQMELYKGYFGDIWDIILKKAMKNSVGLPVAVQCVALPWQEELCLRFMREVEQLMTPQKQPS
The test is described as follows: FAAH enzyme assay, hydrolysis of 14C-oleamide by solubilized liver plasma membrane extract. The test is classed as biochemical. The procedure: All enzyme assays were performed at 20-23° C. using a solubilized liver plasma membrane extract containing […] in a reaction buffer of 125 mM Tris, 1 mM EDTA, 0.2% glycerol, 0.02% Triton X-100, 0.4 mM HEPES, pH 9.0 buffer (Patricelli, M. P. et al. Bioorg. Med. Chem. Lett. 1998, 8, 613-618; Patterson, J. E., et al. J. Am Chem. Soc. 1996, 118, 5938-5945). The initial rates of hydrolysis were monitored by following the breakdown of ^14C-oleamide to oleic acid as described previously (Cravatt, B. F. et al. Science 1995, 268, 1506-1509; Patricelli, M. P. et al., 1998). The inhibition was reversible, non time-dependent. Linear least squares fits were used for all reaction progress curves and R^2 values were consistently >0.97. IC50 values were determined from the inhibition observed at 3-5 different test compound concentrations (from three or more trials at each concentration) using the formula IC50=[I]/[(K0/Ki)−1], where K0 is the control reaction rate without inhibitor and Ki is the rate with test compound at concentration [I] (Conde-Frieboes, K., et al. J. Am. Chem. Soc. 1996, 118, 5519-5525). Ki values were determined by the Dixon Method (x-intercepts of weighted linear fits of [I] versus 1/rate plots at constant substrate concentration, which were converted to Ki values using the formula Ki=−xint/[1+[S]/Km]).

For test [5], the target named is T3, FAAH (Mus musculus, UniProt O08914).
T3 construct: from tissue
T3 sequence (O08914 1-579): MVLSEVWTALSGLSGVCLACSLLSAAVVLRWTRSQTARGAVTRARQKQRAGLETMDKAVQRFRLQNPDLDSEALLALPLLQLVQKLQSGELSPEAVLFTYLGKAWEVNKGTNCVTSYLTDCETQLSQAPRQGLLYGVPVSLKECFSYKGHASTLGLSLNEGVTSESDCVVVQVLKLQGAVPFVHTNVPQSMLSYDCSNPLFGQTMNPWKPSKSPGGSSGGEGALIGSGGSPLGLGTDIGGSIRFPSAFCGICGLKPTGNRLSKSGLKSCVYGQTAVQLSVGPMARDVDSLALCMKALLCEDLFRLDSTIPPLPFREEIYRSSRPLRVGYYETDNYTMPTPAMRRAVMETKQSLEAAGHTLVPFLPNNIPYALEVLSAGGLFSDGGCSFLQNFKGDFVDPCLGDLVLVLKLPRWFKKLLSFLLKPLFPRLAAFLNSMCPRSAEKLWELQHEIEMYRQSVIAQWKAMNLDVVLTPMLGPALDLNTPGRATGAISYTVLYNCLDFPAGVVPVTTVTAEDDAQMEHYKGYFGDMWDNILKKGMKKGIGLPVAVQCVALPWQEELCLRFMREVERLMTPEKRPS
The test is described as follows: Proteome-wide serine hydrolase selectivity screen, competition with RPFP active site labeling. The test is classed as binding. As to conditions: inhibition of RPFP labeling. The text has this: (§1) Serine hydrolases represent one of the largest classes of enzymes collectively comprising approximately 3% of the predicted Drosophila proteome. Subclasses include serine proteases, lipases, esterases, amidases, and transacetylases.

Test [6] has as its target T4, KIAA1363 (Mus musculus, UniProt Q8BLF1).
T4 construct: from tissue
T4 sequence (Q8BLF1 1-408): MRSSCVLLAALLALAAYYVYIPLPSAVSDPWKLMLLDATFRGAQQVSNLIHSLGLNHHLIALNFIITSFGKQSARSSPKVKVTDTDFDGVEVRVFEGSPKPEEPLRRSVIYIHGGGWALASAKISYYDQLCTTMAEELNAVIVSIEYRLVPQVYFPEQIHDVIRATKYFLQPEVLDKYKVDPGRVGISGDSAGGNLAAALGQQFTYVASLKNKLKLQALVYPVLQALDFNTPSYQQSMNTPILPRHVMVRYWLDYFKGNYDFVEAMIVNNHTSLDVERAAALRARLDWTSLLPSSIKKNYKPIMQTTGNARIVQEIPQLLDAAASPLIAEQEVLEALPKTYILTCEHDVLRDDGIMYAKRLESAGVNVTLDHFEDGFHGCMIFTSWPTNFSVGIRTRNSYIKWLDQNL
The description is as above. Type of test: binding. As to conditions: inhibition of RPFP labeling, read-out: KIAA IC50.
Source text: as §1

The target of test [7] is T5, triacylglycerol hydrolase (TGH) (Mus musculus, UniProt Q8VCT4).
T5 construct: from tissue
T5 sequence (Q8VCT4 19-565): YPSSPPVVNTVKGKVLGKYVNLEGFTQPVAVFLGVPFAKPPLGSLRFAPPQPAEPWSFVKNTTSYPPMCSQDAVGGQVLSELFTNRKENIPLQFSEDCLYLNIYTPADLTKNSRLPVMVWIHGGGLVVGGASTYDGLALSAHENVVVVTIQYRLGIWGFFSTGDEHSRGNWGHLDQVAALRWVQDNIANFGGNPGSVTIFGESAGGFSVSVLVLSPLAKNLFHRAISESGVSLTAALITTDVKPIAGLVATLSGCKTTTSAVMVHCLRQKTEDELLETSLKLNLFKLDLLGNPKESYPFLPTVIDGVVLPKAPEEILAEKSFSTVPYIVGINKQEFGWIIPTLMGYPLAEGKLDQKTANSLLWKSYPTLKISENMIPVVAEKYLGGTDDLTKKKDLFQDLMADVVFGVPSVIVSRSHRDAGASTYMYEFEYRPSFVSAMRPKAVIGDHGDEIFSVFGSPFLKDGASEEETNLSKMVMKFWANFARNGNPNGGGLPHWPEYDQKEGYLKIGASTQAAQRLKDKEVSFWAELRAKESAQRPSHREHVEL
Described as above. The conditions noted are these: inhibition of RPFP labeling. The test is classed as binding.
Source text: as §1
Biotinylated (B) or fluorescently-tagged (rhodamine, R) PEG-fluorophosphonate (BPFP or RPFP, respectively) have been used to isolate and identify (BPFP) or quantitate (RPFP) proteome serine hydrolases through selective, irreversible active site labeling (Kidd, D., et al., 2001; Liu, Y., et al., 1999). Extending this to the assessment of inhibitor selectivity required incubation of the proteome with RPFP in the presence of systematically varied concentrations of inhibitor followed by SDS-PAGE to detect serine hydrolases sensitive to the inhibitor (Leung, D., et al., 2003). A resulting inhibition of RPFP active site labeling correlated with inhibitor affinity for the target and permitted the simultaneous assessment of competitive enzymes.
Two enzymes emerged from the screen as competitive targets for the oxadiazole ketone compounds detailed herein: triacylglycerol hydrolase (TGH) and an uncharacterized membrane-bound hydrolase that lacks known substrates and function (KIAA1363) (Kidd, D., et al., 2001; Liu, Y., et al., 1999; Leung, D., et al., 2003).

Test [8] deals with rats. The conditions noted are these: WO 02/087569; cited from earlier work.
The test system of test [9] is rats. The conditions noted are these: WO 02/087569; cited from earlier work. The source holds these as a separate data set.
[10] abbreviates: Table 1, Dixon method, 14C-oleamide substrate, pH 9.0, 20-23° C., read-out: Ki.
The mark [11] stands for this setting: Table 2 (repeats the enzyme assay Ki), read-out: FAAH Ki.

Where two headings read alike, the source gives them in different places.

For the molecule `O=C(CCCCCCc1ccccc1)c1ncc(-c2ccccn2)o1` [OL-135], the “analgesic efficacy/activity in hot plate test” value in [1] is “analgesic activity”. In addition, the FAAH inhibition entry in test [2] is recorded as “potent inhibitor”. Besides, the “analgesic activity in tail emersion test” value in test [3] is “analgesic activity”.

A word on the Ki: it is a dissociation constant, usually derived from enzyme kinetics or from competition with a known ligand. In the case of `CCCCCCCC/C=C\CCCCCCCC(=O)c1nnc(-c2ccccn2)o1` [Example 5, 1-[5-(Pyridin-2-yl)-1,3,4-oxadiazol-2-yl]-octadec-9-en-1-one], in test [4] (setting [10]), the inhibition constant Ki was determined as 3 nM.

For orientation: IC50 means the concentration needed to halve the response being measured. Consider `O=C(CCCCCCc1ccccc1)c1nnc(-c2ccncc2)o1` [Example 10, 7-Phenyl-1-[5-(pyridin-4-yl)-1,3,4-oxadiazol-2-yl]-heptan-1-one], for which, in test [4] (setting [10]), the inhibition constant Ki came to 1 nM. The figures for the concentration for half-maximal inhibition (IC50) in [5], in test [6] and in test [7] were 20 nM, > 100000 nM and 30 nM, respectively.

As for `Cc1nc(-c2ccccc2)c(-c2ccccc2)n1CCCCCCNC(=O)Oc1ccccc1F` [BMS-1], the “analgesic effect, Chung spinal nerve ligation model” value in test [8] is on record as “analgesic effect”. In addition, the “analgesic effect, Hargraves test” value in test [9] is “analgesic effect”.

Regarding `O=C(CCCCCCc1ccccc1)c1nnc(-c2ccco2)o1` [Example 11], the figures for the IC50 in [5], in test [6] and in test [7] were 1 nM, > 100000 nM and 80 nM, respectively.

For the molecule `O=C(CCCCCCc1ccccc1)c1nnc(-c2ccccc2)o1` [Example 6, 7-Phenyl-1-(5-phenyl-1,3,4-oxadiazol-2-yl)-heptan-1-one], the inhibitory constant (Ki) in test [4] (setting [10]) and in [4] (setting [11]) was 2 nM each time. For the same molecule, the IC50 in test [5] was 25 nM; in test [6] it was > 100000 nM; in [7], 250 nM.

With `O=C(CCCCCc1ccccc1)c1nnc(-c2ccccn2)o1` [Example 2, 6-Phenyl-1-[5-(pyridin-2-yl)-1,3,4-oxadiazol-2-yl]-hexan-1-one], the inhibition constant (Ki) in [4] (setting [10]) came out at 0.85 nM. The 50% inhibitory concentration (IC50) in [5] was determined as 4 nM; in [6], 90000 nM; in test [7] it was 30 nM.

In the case of `CCCCCCCC/C=C\CCCCCCCC(=O)c1nnc(-c2ccccc2)o1` [Example 7, 1-(5-Phenyl-1,3,4-oxadiazol-2-yl)-octadec-9-en-1-one], the Ki in test [4] (setting [10]) came out at 16 nM.

Turning to `O=C(CCCCCCc1ccccc1)c1nnc(-c2cccnc2)o1` [Example 9, 7-Phenyl-1-[5-(pyridin-3-yl)-1,3,4-oxadiazol-2-yl]-heptan-1-one], the inhibition constant (Ki) in test [4] (setting [10]) is 1 nM. The IC50 in [5] is 20 nM; in test [6], > 100000 nM; in test [7] it was 100 nM.

Take `O=C(CCCCCCCCc1ccccc1)c1nnc(-c2ccccn2)o1` [Example 4, 9-Phenyl-1-[5-(pyridin-2-yl)-1,3,4-oxadiazol-2-yl]-nonan-1-one]: the inhibition constant (Ki) in [4] (setting [10]) and in test [4] (setting [11]) was 0.83 nM throughout. Besides, the IC50 in [5] came out at 0.8 nM; in test [6] it was 3000 nM; in test [7], 500 nM.

For the molecule `O=C(CCCCCCCc1ccccc1)c1nnc(-c2ccccn2)o1` [Example 3, 8-Phenyl-1-[5-(pyridin-2-yl)-1,3,4-oxadiazol-2-yl]-octan-1-one], in test [4] (setting [10]), the inhibitory constant (Ki) is 0.77 nM. The figures for the half-maximal inhibitory concentration (IC50) in test [5], in test [6] and in test [7] were 0.6 nM, 60000 nM and 200 nM, respectively.

In the case of `O=C(CCCCCCc1ccccc1)c1nnc(-c2ccccn2)o1` [Example 1, 7-Phenyl-1-[5-(pyridin-2-yl)-1,3,4-oxadiazol-2-yl]-heptan-1-one], the values for the half-maximal inhibitory concentration (IC50) in [5], in [6] and in test [7] were 1 nM, 50000 nM and 140 nM, respectively.
